Measured values: PMC7143582, “Functional Characterization of Sex Pheromone Receptors in the Fall Armyworm (Spodoptera frugiperda)” (Insects, 2020)

Legend:
SfruOR16 = tested on: T1, SfruOR16; assay: two-electrode voltage clamp, Xenopus oocytes co-expressing SfruOR16/ORco, dose-response; assay type: cell-based, Spodoptera frugiperda
T1 construct: gene OR16; full-length ORF; with SfruORco

SfruOR13 = tested on: T2, SfruOR13; assay: two-electrode voltage clamp, Xenopus oocytes co-expressing SfruOR13/ORco, dose-response; assay type: cell-based, Spodoptera frugiperda
T2 construct: gene OR13; full-length ORF; with SfruORco

| SMILES | EC50 (SfruOR16) | EC50 (SfruOR13) |
| --- | --- | --- |
| CCCC/C=C\CCCCCCCCO [Z9-14:OH, (Z)-9-tetradecen-1-ol] | 16.9 µM |  |
| CCCC/C=C\CCCCCCCCOC(C)=O [Z9-14:OAc] |  | 6.08 µM |
